Experimental data as given in PMC3733247 (Journal of medicinal chemistry, 2013).

Molecular target: HIV-1 RT (Human immunodeficiency virus type 1 group M subtype B, UniProt P03366)
Assay: Steady-state competition assay, IC50 determination
Format: biochemical
Details: dTTP incorporation, ratio of IC50 values

With `Cc1cc(C#CCOCCOCCOCCOCCOCC#Cc2cn([C@H]3C=C[C@@H](COP(=O)(O)OP(=O)(O)OP(=O)(O)O)O3)c(=O)[nH]c2=O)cc(C)c1Oc1ccnc(Nc2ccc(C#N)cc2)n1` [d4TTP-4PEG-TMC, d4U-Propynyl-4-PEG-propynyl-TMC-triphosphate] the “fold improvement of polymerization inhibition over propargyl-4PEG-TMC” value was 40 fold, the “fold improvement of polymerization inhibition relative to the TMC-derivative” value was “approximately 4.3 fold” and the “fold improvement of polymerization inhibition relative to the TMC-derivative” value (listed as triphosphate of d4T-4PEG-TMC) was 4.3 fold.
In the case of `C#CCOCCOCCOCCOCCOCC#Cc1cc(C)c(Oc2ccnc(Nc3ccc(C#N)cc3)n2)c(C)c1` [propargyl-4PEG-TMC, 4-[4-(4-{3-[2-(2-{2-[2-(Prop-2-ynyloxy)ethoxy]ethoxy}ethoxy)-ethoxy]prop-1-ynyl}-2,6-dimethylphenoxy)pyrimidin-2-ylamino]-benzonitrile], the “fold decrease in potency relative to the TMC-derivative” value is reported as 10 fold.
